From patent US11826317B2, “Combination therapy with notch and PD-1 or PD-L1 inhibitors” (Eli Lilly and Company, priority 2016, dated 2023) come the findings set out here.

One assay concerns CT26 cells. The experiment in a line: CT26 colorectal tumor growth in BALB/C mice (in-vivo study). The settings on record: CT26 s.c. in BALB/C mice. The protocol:
For in-vivo studies 1×10^6 CT26 cells (ATCC® CRL2639™) a colorectal cancer cell line, in 0.2 mL Hank's Balanced Salt Solution (HBSS) is implanted by subcutaneous injection in the hind leg of 6-8 weeks of age BALB/C female mice (Harlan Laboratories). Mice are fed ad libitum on normal chow. Treatment is initiated on day 6 of tumor implantation with oral administration (gavage) of Compound A in 1% Sodium carboxymethyl cellulose (Na-CMC) in 0.25% Tween® 80, or intraperitoneal injection of mouse anti PD-L1 antibody (10F.9G2, BioXcell Catalogue #: BE0101) in phosphate buffered saline (PBS) or intraperitoneal injection of mouse anti PD-1 (CD279) antibody (Clone: RMP1-14, BioXCell #: BP0146-R) in PBS or their respective vehicle in 0.2 mL volume. Compound A is administered at 8 mg/kg on a Monday, Wednesday and Friday schedule for 2 weeks and 10F.9G2 and RMP1-14 are administered at 250 μg/dose/animal on Monday and Thursday schedule for 2 weeks.
Tumor growth and body weight are monitored over time to evaluate efficacy and signs of toxicity. Bidimensional measurements of tumors are performed twice a week and tumor volumes are calculated based on the following formula: (Tumor Volume)=[(L)×(W2)×(Π/6)] where L is mid-axis length and W is mid-axis width. Tumor volume data are transformed to a log scale to equalize variance across time and treatment groups. The log volume data are analyzed with a two-way repeated measures analysis of variance by time and treatment using the MIXED™ procedures in SAS™ software (version 8.2). The correlation model for the repeated measures is spatial power. Test Groups are: • 1: 1% CMC/0.25% Tween® 80/0.05% Antifoam, Monday-Wednesday-Friday ×2, PO/PBS Monday-Thursday ×2, IP • 2: Compound A, 8 mg/kg, Monday-Wednesday-Friday ×2, PO • 3: Compound B (PD-L1), 250 μg/dose, Monday-Thursday ×2, IP • 4: Compound C (PD-1), 250 μg/dose, Monday-Thursday ×2, IP • 5: Compound A, 8 mg/kg, Monday-Wednesday-Friday ×2, PO/Compound B (PD-L1), 250 μg/dose, Monday-Thursday ×2, IP • 6: Compound A, 8 mg/kg, Monday-Wednesday-Friday ×2, PO/Compound C (PD-1), 250 μg/dose, Monday-Thursday ×2, IP
Tumor growth and body weight are monitored over time to evaluate efficacy and signs of toxicity. Bidimensional measurements of tumors are performed twice a week and tumor volumes are calculated based on the following formula: (Tumor Volume)=[(L)×(W2)×(Π/6)] where L is mid-axis length and W is mid-axis width. Tumor volume data are transformed to a log scale to equalize variance across time and treatment groups. The log volume data are analyzed with a two-way repeated measures analysis of variance by time and treatment using the MIXED™ procedures in SAS™ software (version 8.2). The correlation model for the repeated measures is spatial power. Treated groups are compared to the control group at each time point. The MIXED™ procedure is also used separately for each treatment group to calculate adjusted means and standard errors at each time point. Both analyses account for the autocorrelation within each animal and the loss of data that occurs when animals with large tumors are removed from the study early. […] Antitumor activity is expressed as a tumor volume percentage for treatment versus control (% T/C) and is calculated by comparing tumor volume in the treatment group with vehicle treatment group. Percentage T/C and statistical significance value (p value) for the treatment groups is measured essentially as described above and summarized in Table 2. […]

Assay [1] has as its system CT-26 tumors. The experiment in a line: Flow-cytometry of intra-tumoral immune cell populations in excised CT-26 tumors. It is filed as in vivo, mice. The settings on record: tumors excised day 20, 1 h after last dose of Compound A. How it is done: (§1) For mechanism analysis CT-26 tumors are excised on day 20, 1 h following the last dose of Compound A. A small piece of approximately 30 mg is cut and stored in RNALater for gene expression analysis. The remainder of the tumor is processed for the flow-cytometry analysis.
Tumors are weighed and then homogenized in 5 ml 4° C. complete media (CM; RPMI-1640/10% fetal bovine serum (FBS)) through 100 μm strainers to produce single-cell suspensions. Cells are centrifuged for 5 minutes at 466×g, 4° C.; the pellets are resuspended in fresh CM (0.5-3 ml, depending on pellet volume), and cells are counted using a Vi-Cell XR (Beckman Coulter). An equal number of total cells per tumor (10×10^6) are transferred to 96-well V-bottom microplates (Fisher Scientific). Cells are centrifuged (700×g, 3 min., 4° C.) and resuspended in 100 μl 1 μg/ml Fc block in CM (anti-CD16/32 (clone 2.4G2); Tonbo Biosciences) for 30 minutes on ice. Cells are centrifuged (700×g, 3 minutes, 4° C.) and resuspended in 100 μl of one of several fluochrome-conjugated surface marker antibody cocktails [anti-CD3 (clone 145-2C11), -Ly-6G (clone 1A8), -CD11c (clone HL3), -CD45 (clone 30-F11) (BD Biosciences), anti-CD8 (clone 53-6.7) (Biolegend), -CD11b (clone M1/70), -CD3 (clone 145-2C11), -F4/80 (clone BM8), -CD4 (clone RM4-5), (eBioscience)] containing a fixable viability dye (eBioscience) and incubated for 30 minutes on ice covered from light. Cells are twice washed with 200 μl CM and centrifuged (700×g, 3 min., 4° C.). Following the second wash, cells are fixed, permeabilized, and intracellularly stained for Ki67 (clone SolA15) (eBioscience) using the Foxp3/Transcription Factor Staining Buffer Set (eBioscience), following the manufacturer's instructions with noted modifications. Briefly, cells are fixed in 100 μl/well for 30 min., followed by 100 μl/well permeabilization buffer with or without intracellular stain (depending on the staining panel used) for 30 min. Cells are twice washed with 200 μl 1× permeabilization buffer and centrifuged (700×g, 3 min., 4° C.), followed by resuspension in PBS with 2% FBS. 1×10^6 events, excluding debris, are captured for each sample using a 10-channel LSR II cytometer (BD Biosciences) and analyzed using FlowJo V.10.0.8 software. Data is represented as percent of tumor cells, with noted exceptions where represented as percent of parent population. Post-hoc t-test following ANOVA is used for statistical analysis between vehicle and treatment groups.

Assay [2] deals with CT-26 tumors. Kind of assay: Gene expression analysis (Taqman) of excised CT-26 tumors. Conditions: all genes of Table 4; single-agent groups versus vehicle; result in words. Format: in vivo, mice. The protocol:
as §1
For RNA isolation from the tumor, approximately 30 mg tissue is cut. RNA is extracted by RNeasy Protocol (version January 2002) using RNeasy 96-well Column Plates (Qiagen, Valencia, Calif.; Cat #74182) and QiaVac 96 vacuum manifold at 15 psi vacuum. […] The total RNA concentration is estimated using Nanodrop ND-1000 spectrophotometer by absorbance at 260 nm (Thermo Scietific). […]
For Taqman procedure, 100 μL of cDNA is diluted with 200 μL RNase/DNase-free water in 96-Well Clear Optical Reaction Plate (Applied Biosystems, Cat #4306737) and transferred to 2 mL RNase/DNase-free tubes (Ambion, Cat #AM12475). […] Samples are dispensed with Tecan Automated Pipetting Workstation (Tecan US Inc., Durham, N.C.; Model: Freedom Evo-100 or Evo-150), and plates are read in ABI Prism 9700HT SDS plate reader with following protocol settings: 50° C. for 2 minutes, 95° C. for 10 minutes, and 40 cycles at 95° C. for 15 seconds and 60° C. for 1 minute. […] All calculations are done in Microsoft Excel spreadsheet template, and % inhibition is calculated from control values. […]
On the technique in general: In qPCR the cycle at which signal appears reflects the starting amount.

For the molecule `C[C@H](NC(=O)CCC(F)(F)F)C(=O)N[C@@H]1C(=O)N(CCO)c2ncccc2-c2ccccc21` [Compound A, 4,4,4-trifluoro-N-[(1S)-2-[[(7S)-5-(2-hydroxyethyl)-6-oxo-7H-pyrido[2,3-d][3]benzazepin-7-yl]amino]-1-methyl-2-oxo-ethyl]butanamide], the “Tumor volume: Geometric Mean” value in the assay on CT26 cells (study day 8) came out at 47.96 mm^3. Further, the “Tumor volume: Geometric Mean” value in the assay on CT26 cells (study day 10) is reported as 88.80 mm^3. The “Tumor volume: Geometric Mean” value in the assay on CT26 cells (study day 14) is recorded as 376.50 mm^3. Besides, the “Tumor volume: Geometric Mean” value in the assay with CT26 cells (study day 17) is given as 751.13 mm^3. Further, in the assay with CT26 cells (study day 20), the “Tumor volume: Geometric Mean” value came out at 1227.40 mm^3. Further, in the assay with CT-26 tumors [1], the “CD4+/Ki67+ (% of CD4+) Mean % ± SEM” value is given as 7.6 ± 0.5%, the “CD8+/Ki67+ (% of CD8+) Mean % ± SEM” value turned out to be 23.1 ± 2.0%, the “CD11b + F4/80+ (% of Tumor) Mean % ± SEM” value is reported as 0.89 ± 0.15% and the “CD11b + Ly-6G + F4/80− (% of Tumor) Mean % ± SEM” value was determined as 1.12 ± 0.08%. Moreover, in the assay with CT-26 tumors [1], the “CD11b+ (% of Tumor) Mean % ± SEM” value was 2.9 ± 0.2% and the “CD11c+ (% of Tumor) Mean % ± SEM” value came out at 0.42 ± 0.06%. Further, the “change in the expression of genes examined” value with CT-26 tumors [2] is listed as “No significant change”.
